Results from article PMC4366261, “Characterization of the Intestinal Absorption of Seven Flavonoids from the Flowers of Trollius chinensis Using the Caco-2 Cell Monolayer Model” (PLoS ONE, 2015).
Where “and” joins values, the source holds several entries; their conditions need not be identical. Equal values may be shown once.

Experiments:
Caco-2 cells = assay: MTT assay, survival rate of Caco-2 cells; assay type: cell-based, human; conditions: 4 h
Source text: The human colon adenocarcinoma cell line Caco-2 (No. 3111C0001CCC000100, passage 32) was obtained from the Cell Resource Center, Peking Union Medical College (the headquarters of National Infrastructure of Cell Line Resource, NSTI) on May 3rd, 2013. The cell line was checked free of mycoplasma contamination by PCR and culture, its species origin was confirmed with PCR, and its identity was authenticated with STR profiling (FBI, CODIS). All results of the above tests can be viewed on the website (http://cellresource.cn). The cells were cultured in 25 cm^2 flasks in DMEM medium supplemented with 10% (v/v) FBS, 1% (v/v) NEAA, and 1% (v/v) penicillin-streptomycin, in an atmosphere of 5% CO2 at 37°C and constant moisture. The culture medium was replaced every 2 to 3 days, and the cells were split 1:2 or 1:3 as 80% confluence was obtained.
Caco-2 cells at logarithmic growth phase were seeded into 96-well plates and incubated at 37°C in an atmosphere of 5% CO2 and constant moisture in the incubator. After the cells reached confluence, they were cultured in quadruplicate with 100 μL of HBSS solution (negative control) and compound-containing HBSS solution (seven flavonoids or paclitaxel (positive control) at the concentrations of 25, 50, and 100 μmol/L, respectively) for 4 h. Then, HBSS solution was replaced by 100 μL of MTT solution (0.5 mg/mL), and the supernatant was discarded after 4 h of incubation at 37°C. The cells were shaken with 150 μL of DMSO for 10 min, and the absorbance was read on the microplate reader at 570 nm. The survival rate %=A¯/A0¯×100 , wherein A¯ was the average absorbance value of treatment or positive control group, and A0¯ was the average absorbance value of negative control group.

[1] = Transport experiment across Caco-2 cell monolayer (Papp); assay type: in vitro ADME, human; conditions: human, 50 μmol/L, 90 min
Method: (§1) For cells differentiation to form a confluent monolayer, Caco-2 cells were seeded into the inserts of the 12-well Transwell plates at the density of 1.0×10^5 cells/cm^2. The culture medium was replaced on every other day in the first week, and then at daily intervals for the apical (AP) side and 2 days intervals for the basal (BL) side until the transport experiment was performed 21 days after seeding. The AP and BL sides contained 0.5 and 1.5 mL of culture medium, respectively. […] The cell inserts were considered as qualified only if the resistance reached above 600 Ω cm^2.
(§2) On day 21, the transport experiment was initiated by removal of the culture medium from AP and BL sides. The Caco-2 monolayers were rinsed twice with pre-warmed Hanks balanced salt solution (HBSS) and were incubated with the same solution at 37°C for 30 min. The seven individual test compounds and an equimolar mixture of them were pre-dissolved in DMSO, and then diluted to 25, 50, and 100 μmol/L with an appropriate volume of HBSS to allow the final concentration of DMSO to be less than 1%. The test compounds were added to the AP (0.5 mL) or BL side (1.5 mL), while the receiving chamber contained the corresponding volume of HBSS. Incubation was performed at 37°C for 180 min, with shaking at 50 rpm. At 30, 60, 90, 120, 150, and 180 min, each 0.2 mL of the solution from BL or AP side was collected, and replaced with an equal volume of HBSS. The samples were frozen immediately and stored below-20°C before analysis.
(§3) The apparent permeability coefficients (Papp) were determined in this study by HPLC quantification of the compounds in the receiver chamber after transport across the Caco-2 monolayer. The calculation was carried out in accordance with the formula Papp = (dQ/dt)×(1/A)×(1/C0), wherein dQ/dt was the rate of appearance of the test compound in the receiver compartment (μmol/s); C0 was the initial concentration of test compound in the donor compartment (μmol/mL); and A was the surface area of the Caco-2 monolayer (cm^2). The percentage transported (%) was calculated using the formula % transported = QB/(CS×VD)×100, wherein QB was the quantity of compound in the receiver compartment (μmol); CS was the concentration of test compound in the donor compartment (μmol/mL); VD was the liquid volume of the donor compartment (mL). The transport rate (μmol/h/cm^2) was calculated using the formula transport rate = QB/(t×A), wherein QB was the quantity of compound in the receiver compartment (μmol); t was the incubation time (h); A was the surface area of the Caco-2 monolayer (cm^2).

Caco-2 cell monolayer = assay: as above; assay type: in vitro ADME, human; conditions: for Absorption mechanism: from P ratio, time course and concentration course; for P ratio Papp AP→BL/Papp BL→AP: 90 min
Method: as §1, §2, §3

[2] = Stability of sample solutions at room temperature by HPLC; assay type: physicochemical; conditions: sample solution at room temperature, HPLC at 0, 1, 2, 4, 6, 12 and 24 h
Method: The intra-day precision was determined by investigating the analytes in sextuplicates during a single day, and the inter-day precision was determined by conducting the intra-day experiment on two consecutive days. […] Each one sample solution of the seven flavonoids was kept at room temperature, and then their stabilities were determined by injecting them into apparatus at 0, 1, 2, 4, 6, 12, and 24 h.

murine ear edema model = conditions: cited from earlier work
influenza virus A = test system: influenza virus A; design: method as in PMID 17193271; conditions: cited from earlier work
P-glycoprotein (P-gp) = target: T1, P-glycoprotein (P-gp) (Homo sapiens, UniProt P08183); assay: Transporter inhibition experiment with verapamil hydrochloride (P-gp) in Caco-2 monolayer; assay type: in vitro ADME; conditions: 50 μmol/L compound, 100 μmol/L verapamil hydrochloride, AP to BL
T1 construct: endogenous in cells; host or cells: Caco-2 cells
Method: (§4) On day 21, transport study was initiated by carefully removing the culture medium from both AP and BL sides. The Caco-2 monolayers were rinsed twice with pre-warmed HBSS and were incubated with the same solution at 37°C for 30 min. […] The final concentration of DMSO in these solutions was less than 1%. […] Incubation was performed at 37°C for 180 min, with shaking at 50 rpm. […] The samples were frozen immediately and stored below-20°C before analysis.

[3] = target: T2, multidrug resistance protein 2 (MRP2) (Homo sapiens, UniProt Q92887); assay: Transporter inhibition experiment with probenecid (MRP2) in Caco-2 monolayer; assay type: in vitro ADME; conditions: 50 μmol/L compound, 600 μmol/L probenecid, AP to BL
T2 construct: endogenous in cells; host or cells: Caco-2 cells
Method: as §4

[4] = Caco-2, in the equimolar mixture of the seven flavonoids
[5] = in the equimolar mixture of the seven flavonoids, 50 μmol/L

T1 sequence (P08183 whole entry): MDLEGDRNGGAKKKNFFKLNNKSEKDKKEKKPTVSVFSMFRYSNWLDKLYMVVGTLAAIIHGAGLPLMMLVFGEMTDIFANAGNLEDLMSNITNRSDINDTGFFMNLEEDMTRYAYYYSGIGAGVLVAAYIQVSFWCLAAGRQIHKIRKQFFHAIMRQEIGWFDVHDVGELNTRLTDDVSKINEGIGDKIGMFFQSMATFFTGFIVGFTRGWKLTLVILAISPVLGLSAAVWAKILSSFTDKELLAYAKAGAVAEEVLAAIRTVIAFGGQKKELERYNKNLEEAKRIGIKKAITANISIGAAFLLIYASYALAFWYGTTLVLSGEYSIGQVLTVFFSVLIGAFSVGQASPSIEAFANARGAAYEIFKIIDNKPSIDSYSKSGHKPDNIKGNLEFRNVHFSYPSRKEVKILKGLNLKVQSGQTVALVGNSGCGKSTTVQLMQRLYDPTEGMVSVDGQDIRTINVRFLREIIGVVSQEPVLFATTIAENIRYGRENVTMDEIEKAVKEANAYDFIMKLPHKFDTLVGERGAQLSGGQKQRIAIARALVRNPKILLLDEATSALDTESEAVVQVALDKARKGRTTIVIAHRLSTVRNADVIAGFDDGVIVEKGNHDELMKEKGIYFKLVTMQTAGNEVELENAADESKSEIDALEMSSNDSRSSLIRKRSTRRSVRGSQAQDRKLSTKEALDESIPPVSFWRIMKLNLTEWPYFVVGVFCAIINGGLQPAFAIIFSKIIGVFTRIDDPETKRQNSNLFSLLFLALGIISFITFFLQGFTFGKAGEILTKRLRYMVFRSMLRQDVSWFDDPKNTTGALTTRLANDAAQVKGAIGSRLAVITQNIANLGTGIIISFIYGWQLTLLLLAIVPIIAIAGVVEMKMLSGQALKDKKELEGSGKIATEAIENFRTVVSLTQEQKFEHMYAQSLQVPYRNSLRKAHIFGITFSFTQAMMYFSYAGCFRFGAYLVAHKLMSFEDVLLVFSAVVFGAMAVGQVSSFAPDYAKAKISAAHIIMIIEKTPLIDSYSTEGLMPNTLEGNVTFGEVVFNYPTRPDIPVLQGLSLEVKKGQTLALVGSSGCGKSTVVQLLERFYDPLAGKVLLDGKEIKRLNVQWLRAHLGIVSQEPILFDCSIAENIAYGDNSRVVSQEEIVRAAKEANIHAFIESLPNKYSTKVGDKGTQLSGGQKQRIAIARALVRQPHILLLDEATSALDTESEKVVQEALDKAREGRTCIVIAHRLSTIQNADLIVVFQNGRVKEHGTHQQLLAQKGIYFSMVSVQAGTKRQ
T2 sequence (Q92887 whole entry): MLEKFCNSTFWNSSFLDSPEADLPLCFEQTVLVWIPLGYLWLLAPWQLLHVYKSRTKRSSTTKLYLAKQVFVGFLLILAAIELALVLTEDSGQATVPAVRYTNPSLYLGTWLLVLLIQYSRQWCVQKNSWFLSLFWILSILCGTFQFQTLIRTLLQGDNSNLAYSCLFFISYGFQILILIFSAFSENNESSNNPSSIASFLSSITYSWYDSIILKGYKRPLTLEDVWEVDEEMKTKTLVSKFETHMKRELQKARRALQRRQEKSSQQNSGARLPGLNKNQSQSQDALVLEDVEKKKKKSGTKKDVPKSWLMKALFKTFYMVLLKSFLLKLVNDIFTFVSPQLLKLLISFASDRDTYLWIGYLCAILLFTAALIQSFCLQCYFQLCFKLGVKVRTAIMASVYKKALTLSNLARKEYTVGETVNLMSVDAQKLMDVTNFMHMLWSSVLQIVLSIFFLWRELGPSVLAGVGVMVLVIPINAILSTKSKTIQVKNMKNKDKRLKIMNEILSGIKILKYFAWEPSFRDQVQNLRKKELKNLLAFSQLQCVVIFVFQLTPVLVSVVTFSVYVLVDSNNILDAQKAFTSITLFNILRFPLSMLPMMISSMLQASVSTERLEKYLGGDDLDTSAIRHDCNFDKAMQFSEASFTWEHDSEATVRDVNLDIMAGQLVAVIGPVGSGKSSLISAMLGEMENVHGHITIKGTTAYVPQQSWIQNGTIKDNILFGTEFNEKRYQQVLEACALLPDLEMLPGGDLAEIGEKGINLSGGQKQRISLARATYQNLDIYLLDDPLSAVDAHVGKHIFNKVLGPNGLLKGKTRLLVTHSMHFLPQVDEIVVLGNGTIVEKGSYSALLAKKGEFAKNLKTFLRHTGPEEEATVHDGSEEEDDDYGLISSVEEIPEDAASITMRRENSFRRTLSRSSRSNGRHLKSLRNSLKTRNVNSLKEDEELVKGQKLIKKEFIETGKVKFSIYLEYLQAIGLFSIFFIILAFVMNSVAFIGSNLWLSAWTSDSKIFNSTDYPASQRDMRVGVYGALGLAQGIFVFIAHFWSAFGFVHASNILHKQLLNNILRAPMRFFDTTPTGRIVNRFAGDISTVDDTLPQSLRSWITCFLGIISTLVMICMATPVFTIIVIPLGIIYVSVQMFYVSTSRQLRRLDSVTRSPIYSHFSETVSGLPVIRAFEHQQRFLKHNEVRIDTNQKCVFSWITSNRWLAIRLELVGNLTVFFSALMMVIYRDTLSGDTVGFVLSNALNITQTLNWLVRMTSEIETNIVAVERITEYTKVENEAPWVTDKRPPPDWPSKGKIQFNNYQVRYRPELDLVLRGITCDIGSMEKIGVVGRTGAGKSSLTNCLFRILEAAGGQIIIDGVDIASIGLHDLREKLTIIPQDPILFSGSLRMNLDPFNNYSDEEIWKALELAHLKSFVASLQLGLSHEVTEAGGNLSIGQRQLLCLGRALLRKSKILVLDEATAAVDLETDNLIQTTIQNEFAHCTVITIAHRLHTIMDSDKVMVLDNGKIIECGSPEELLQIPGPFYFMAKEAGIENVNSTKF

Structure (SMILES)	Survival rates (%) (Caco-2 cells; 25 μmol/L)	Survival rates (%) (Caco-2 cells; 50 μmol/L)	Survival rates (%) (Caco-2 cells; 100 μmol/L)	Papp A→B at 90 min, 50 μmol/L [1, 4] [×10⁻⁶ cm/s]	Papp B→A at 90 min, 50 μmol/L [1, 4] [×10⁻⁶ cm/s]	Papp A→B at 90 min, 50 μmol/L ([1]; Caco-2, individual compound) [×10⁻⁶ cm/s]	Papp B→A at 90 min, 50 μmol/L ([1]; Caco-2, individual compound) [×10⁻⁶ cm/s]	Transport percentage BL to AP in the equimolar mixture compared with individual state (Caco-2 cell monolayer; 50 μmol/L)	Absorbability assessment based on bidirectional Papp values (Caco-2 cell monolayer; compared with atenolol and propranolol)	Absorption mechanism (Caco-2 cell monolayer)	P ratio Papp AP→BL/Papp BL→AP (Caco-2 cell monolayer; [5])	P ratio Papp AP→BL/Papp BL→AP (Caco-2 cell monolayer; individual compound, 50 μmol/L)	RSD% values for 24-hour stability [2] [%]	Inhibitory rate on murine ear edema model (murine ear edema model) [%]	Effect against influenza virus A (influenza virus A)	Substrate of P-gp (P-glycoprotein (P-gp))	Effect of verapamil hydrochloride on the transport (P-glycoprotein (P-gp); 180 min)	Substrate of MRP2 [3]	Effect of probenecid on the transport ([3]; 180 min)
CCC(C)C(=O)O[C@@H]1[C@@H](O)[C@H](O)[C@@H](CO)O[C@H]1c1c(OC)cc(O)c2c(=O)cc(-c3ccc(O)cc3)oc12 (stereo partly drawn) [2”-O-(2”‘-methylbutanoyl)isoswertisin, (2S,3R,4S,5S,6R)-4,5-dihydroxy-2-(5-hydroxy-2-(4-hydroxyphenyl)-7-methoxy-4-oxo-4H-chromen-8-yl)-6-(hydroxymethyl)tetrahydro-2H-pyran-3-yl 2-methylbutanoate]	108.8±10.3	127.6±4.9	128.9±12.5	3.49 ± 0.47	13.7 ± 1.14	4.5 ± 0.03	4.8 ± 0.53	increased almost twice	moderate absorbable compound	passive diffusion without participation of transporter	0.25	~1 and 0.94	3.89	35.5	had an effect	–	–	–	–
O=c1cc(-c2ccc(O)c(O)c2)oc2c([C@@H]3O[C@H](CO)[C@@H](O)[C@H](O)[C@H]3O[C@@H]3O[C@H](CO)[C@H](O)[C@H](O)[C@H]3O)c(O)cc(O)c12 [2”-O-β-L-galactopyranosylorientin, 8-((2S,3R,4S,5S,6R)-4,5-dihydroxy-6-(hydroxymethyl)-3-(((2S,3R,4S,5R,6R)-3,4,5-trihydroxy-6-(hydroxymethyl)tetrahydro-2H-pyran-2-yl)oxy)tetrahydro-2H-pyran-2-yl)-2-(3,4-dihydroxyphenyl)-5,7-dihydroxy-4H-chromen-4-one]	111.0±9.1	104.7±2.7	102.7±7.7	1.31 ± 0.38	0.69 ± 0.26	1.84 ± 0.01	4.58 ± 0.18	–	–	transporter mediated efflux in addition to passive diffusion	1.90	0.40	2.86	–	–	nonsubstrates of P-gp	had no effect	substrate of MRP2	significantly promoted
